Assay results from EP4786467A1, “QUINOLINONE COMPOUND, PREPARATION METHOD THEREFOR AND USE THEREOF” (Vigonvita Life Sciences Co., Ltd., priority 2023, dated 2025).

Legend:
[1] = target: T1, recombinant human 5-HT1A receptor (Homo sapiens, UniProt P08908); experiment: 5-HT1A Receptor Agonist Activity Assay (LANCE cAMP, inhibition of cAMP production); assay type: cell-based; details: CHO-K1 cells expressing the recombinant human 5-HT1A receptor, read-out: 5-HT1A agonistic activity (EC50)
T1 construct: expressed in transfected cells
T1 sequence (P08908 1-422): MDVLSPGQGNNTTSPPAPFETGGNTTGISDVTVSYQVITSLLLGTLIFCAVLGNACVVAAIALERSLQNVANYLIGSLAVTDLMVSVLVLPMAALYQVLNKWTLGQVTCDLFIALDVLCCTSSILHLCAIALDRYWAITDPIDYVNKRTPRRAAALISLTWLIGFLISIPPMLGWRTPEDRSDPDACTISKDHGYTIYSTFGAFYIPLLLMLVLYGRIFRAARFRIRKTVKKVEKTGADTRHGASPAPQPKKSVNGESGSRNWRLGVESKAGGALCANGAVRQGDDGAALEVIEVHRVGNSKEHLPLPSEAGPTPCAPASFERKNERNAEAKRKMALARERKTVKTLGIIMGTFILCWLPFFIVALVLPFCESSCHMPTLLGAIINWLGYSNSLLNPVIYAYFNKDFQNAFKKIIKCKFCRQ
Method: The agonistic effect of the compounds on the 5-HT1A receptor was evaluated by testing their inhibitory effect on cAMP production in CHO-K1 cells. 8-OH-DPAT was used as a positive control. The specific procedures were as follows: a) The compounds (test compounds and positive control) were prepared to a stock concentration of 10 mM using DMSO, and Forskolin was prepared to a stock concentration of 10 mM. The initial test concentration of 8-OH-DPAT was 1 µM, diluted 3X. The initial test concentration of the test compounds was 0.1 µM, diluted 3X, and each concentration was repeated twice. 100 nL of the compounds and 10 nL of Forskolin were transferred to the test plate using an Echo, with a final DMSO concentration <1%. b) The stable 5-HT1A cell line was taken out from the incubator to observe the cell status. When the cell density reached 80%-90%, the culture medium was discarded and the cells were washed with 5 mL of DPBS. After discarding DPBS, 2 mL of trypsin was added, and the cells were incubated at 37 °C for 2-5 min. After adding 10 mL of complete culture medium, the cells were collected, which was centrifuged at 1000 rpm for 4 min, and the supernatant was discarded. […]

[2] = Mouse Pharmacokinetic Experiment (plasma and brain); assay type: in vivo, Male ICR mice; details: for bioavailability: mouse, iv 0.3 mg/kg, po 1 mg/kg; for Cmax / AUC(0-t): oral (po) dose 1 mg/kg
Method: Animal: Male ICR mice. Animals were randomly assigned to the treatment group and fasted for 12 hours before administration.
Drug to be tested: The compounds were dissolved in solvent (0.5% CMC-Na). The intravenous (iv) dose was 0.3 mg/kg, with an administration volume of 5 ml/kg; the oral (po) dose was 1 mg/kg, with an administration volume of 10 mL/kg body weight.
Sample Collection and Bioanalysis: After administration, blood was collected from the orbital sinus of mice at 0.083, 0.25, 0.5, 1, 2, 4, 6, 8, and 24 hours (n=3 at each time point) and placed in EP tubes containing heparin sodium. Mice were euthanized immediately via vertebral dislocation after blood collection, and their brains were harvested at the corresponding time points. All samples were collected immediately, rapidly frozen, and stored at -70°C for later use.
Plasma samples were obtained by whole blood centrifugation. 10 µL of plasma was then mixed with 190 µL of internal standard solution (20 ng/mL metoprazor in acetonitrile containing 0.1% formic acid). After mixing, the mixture was centrifuged at 13000 rpm for 10 min. For each sample, 120 µL of the supernatant was collected, and 0.5-10 µL (depending on the sensitivity of the compound) was then taken for drug analysis using an appropriate liquid chromatography-tandem mass spectrometry (LC-MS/MS) method. Standards for each analyte were used for calibration and identification.
The brain tissue and extract were homogenized at a brain tissue:extract (50% acetonitrile-water) ratio = 1 (g): 8 (ml) using 5 3mm-magnetic beads in an OMNI Bead Ruptor 24 Elite homogenizer at 3.2 m/s for 2 min. The mixture was centrifuged at 4°C, 3000g for 3 min. 50 µL of supernatant was collected and added with 200 µL of internal standard solution (20 ng/mL dissolved in 80% acetonitrile-water). After mixing well, the mixture was centrifuged at 13000 rpm for 10 min. 120 µL of supernatant was collected for each sample. Then, 0.5-10 µL of the supernatant (depending on the sensitivity of the compound) was taken and analyzed using an appropriate LC-MS/MS method. Standards for each analyte were used for calibration and identification.
Data Analysis: Drug concentrations below the limit of quantitation (LLOQ) were recorded as zero. Pharmacokinetic data analysis was performed in PK Solver using non-compartmental, bolus intravenous injection, or extravascular administration analysis model. Data points below LLOQ were excluded from the analysis to improve the validity of t1/2 calculation.

human SERT = target: T2, human SERT (Homo sapiens, UniProt P31645); experiment: 5-HT Transporter Inhibitory Activity Assay (Neurotransmitter transporter uptake assay kit); assay type: cell-based; details: HEK-293 cells expressing human SERT
T2 construct: expressed in transfected cells; host or cells: HEK-293 (HEK-hSERT cells)
T2 sequence (P31645 whole entry): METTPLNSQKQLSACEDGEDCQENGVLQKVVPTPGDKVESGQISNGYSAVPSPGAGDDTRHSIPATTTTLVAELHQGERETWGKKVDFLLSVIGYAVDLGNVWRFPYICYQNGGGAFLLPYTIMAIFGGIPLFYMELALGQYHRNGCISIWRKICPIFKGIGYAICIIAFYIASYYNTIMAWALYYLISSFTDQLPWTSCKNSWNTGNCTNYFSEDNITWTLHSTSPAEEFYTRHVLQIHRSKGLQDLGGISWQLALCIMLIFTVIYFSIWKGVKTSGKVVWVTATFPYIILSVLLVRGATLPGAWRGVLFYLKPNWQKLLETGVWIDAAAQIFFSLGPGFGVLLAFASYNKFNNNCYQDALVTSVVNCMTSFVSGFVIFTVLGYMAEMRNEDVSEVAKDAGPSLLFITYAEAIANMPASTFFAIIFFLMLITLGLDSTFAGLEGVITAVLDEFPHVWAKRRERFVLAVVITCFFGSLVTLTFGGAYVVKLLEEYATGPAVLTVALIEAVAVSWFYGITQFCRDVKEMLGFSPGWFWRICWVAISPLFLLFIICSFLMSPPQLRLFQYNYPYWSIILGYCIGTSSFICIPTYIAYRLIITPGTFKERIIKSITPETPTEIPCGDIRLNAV
Method: The inhibitory effect of the compounds on the 5-HT transporter in HEK-293 cells expressing human SERT was tested using the Neurotransmitter transporter uptake assay kit (Molecular Devices product). The test was performed according to the kit instructions, using citalopram as a positive control. The specific procedure was as follows: a) HEK-hSERT cells were seeded at 20,000 cells/well in a 384-well plate and then incubated overnight at 37°C in an incubator. b) The following day, the compounds (test compounds and positive control) were diluted using DMSO from 20 mM DMSO solution to the working concentration. Each test compound and citalopram were transferred to a 384-well plate using a detection buffer containing 0.1% BSA. The initial test concentration of citalopram was 1 µM, diluted 3X. The initial test concentration of the test compounds was 10 µM, diluted 4X, with each concentration repeated twice. c) The cell culture 384-well plate was taken out from the incubator, the culture medium was aspirated from the wells, and 25 µL of the test compound solution was added per well. The cells were incubated at 37°C for 30 min. After incubation, 25 µL of a dye solution was added to each well and the cells were incubated at 37°C for 30 min. d) the fluorescence values were read on a Flexstation 3 and the data were analyzed using Graphpad Prism.

[3] = Rat Pharmacokinetic Experiment; assay type: in vivo, male SD rats; details: for bioavailability: rat, iv 1 mg/kg, po 3 mg/kg; for AUC(0-t) / Cmax: rat plasma, oral (po) dose 3 mg/kg
Method: The compound of Example 2 was used in a pharmacokinetic experiment in rats (non-fasted male SD rats). The compound of the present invention was dissolved in a solvent (0.5% CMC-Na). The intravenous (iv) dose was 1 mg/kg, with an administration volume of 5 ml/kg; the oral (po) dose was 3 mg/kg, with an administration volume of 10 mL/kg body weight. Approximately 0.3 mL of blood samples were collected from the jugular vein of rats at the following time points: 0.083, 0.25, 0.5, 1, 2, 4, 6, 8, and 24 h (n=3 at each time point). The collected blood was stored under ice-cooling conditions. Plasma was rapidly separated by centrifugation, and a precipitant was added. The concentration of the test compound was quantified using LC-MS.

Row | Compound | EC50 [1] | IC50 (human SERT) | also measured
1 | O=C1CCc2ccc(CCN3CCN(c4ccc(F)c5sccc45)CC3)cc2N1 [Example 12, 7-(2-(4-(7-fluorobenzo[b]thiophene-4-yl)piperazin-1-yl)ethyl)-3,4-dihydroquinolin-2(1H)-one] | 0.8 nM |  | 
2 | O=C1CCc2ccc(CCN3CCN(c4cc(F)cc5occc45)CC3)cc2N1 [Example 1, 7-(2-(4-(6-fluorobenzofuran-4-yl)piperazin-1-yl)ethyl)-3,4-dihydroquinolin-2(1H)-one] | 0.5 nM | 7.8 nM | bioavailability ([2]; male, ICR, plasma): 100%; Cmax ([2]; male, ICR, mouse brain tissue): 368 ng/g; AUC(0-t) ([2]; male, ICR, mouse plasma): 1170 ng·h/mL; Cmax ([2]; male, ICR, mouse plasma): 68.4 ng/mL
3 | O=c1ccc2ccc(CCN3CCN(c4cc(F)cc5c4CCO5)CC3)cc2[nH]1 [Example 7, 7-(2-(4-(6-fluoro-2,3-dihydrobenzofuran-4-yl)piperazin-1-yl)ethyl)quinolin-2(1H)-one] |  | 9 nM | 
4 | O=c1ccc2ccc(CCN3CCN(c4cc(F)cc5ccoc45)CC3)cc2[nH]1 [Example 3, 7-(2-(4-(5-fluorobenzofuran-7-yl)piperazin-1-yl)ethyl)quinolin-2(1H)-one] | 1.3 nM |  | 
5 | O=C1CCc2ccc(CCN3CCN(c4c(F)ccc5ccsc45)CC3)cc2N1 [Example 14, 7-(2-(4-(6-fluorobenzo[b]thiophene-7-yl)piperazin-1-yl)ethyl)-3,4-dihydroquinolin-2(1H)-one] | 1 nM |  | 
6 | [2H]C1([2H])Cc2ccc(CCN3CCN(c4cc(F)cc5c4CCO5)CC3)cc2NC1=O [Example 22, 7-(2-(4-(6-fluoro-2,3-dihydrobenzofuran-4-yl)piperazin-1-yl)ethyl)-3,4-dihydroquinolin-2(1H)-one-3,3-d2] |  | 12.4 nM | 
7 | O=C1CCc2ccc(CCN3CCN(c4cc(F)cc5sccc45)CC3)cc2N1 [Reference compound, 7-(2-(4-(6-fluorobenzo[b]thiophene-4-yl)piperazin-1-yl)ethyl)-3,4-dihydroquinolin-2(1H)-one, reference compound] | 1 nM | 15 nM | bioavailability ([2]; male, ICR, plasma): 50%; Cmax ([2]; male, ICR, mouse brain tissue): 254 ng/g; AUC(0-t) ([2]; male, ICR, mouse plasma): 468 ng·h/mL; Cmax ([2]; male, ICR, mouse plasma): 27.5 ng/mL; bioavailability ([3]; male, SD, plasma): 43%; AUC(0-t) ([3]; male, SD): 1560 ng·h/mL; Cmax ([3]; male, SD): 280 ng/mL
8 | O=C1CCc2ccc(CCN3CCN(c4cc(F)cc5c4OCO5)CC3)cc2N1 [Example 39, 7-(2-(4-(6-fluorobenzo[d][1,3]dioxol-4-yl)piperazin-1-yl)ethyl)-3,4-dihydroquinolin-2(1H)-one] |  | 10.6 nM | 
9 | O=C1CCc2ccc(CCN3CCN(c4cc(F)cc5c4OCC5)CC3)cc2N1 [Example 5, 7-(2-(4-(5-fluoro-2,3-dihydrobenzofuran-7-yl)piperazin-1-yl)ethyl)-3,4-dihydroquinolin-2(1H)-one] | 1.5 nM | 13 nM | 
10 | O=C1CCc2ccc(CCN3CCN(c4cc(F)cc5ccsc45)CC3)cc2N1 [Example 15, 7-(2-(4-(5-fluorobenzo[b]thiophene-7-yl)piperazin-1-yl)ethyl)-3,4-dihydroquinolin-2(1H)-one] | 0.5 nM | 26 nM | 
11 | O=C1CCc2ccc(CCN3CCN(c4cc(F)cc5c4CCO5)CC3)cc2N1 [Example 2, 7-(2-(4-(6-fluoro-2,3-dihydrobenzofuran-4-yl)piperazin-1-yl)ethyl)-3,4-dihydroquinolin-2(1H)-one] |  |  | Cmax ([2]; in vivo, mouse brain tissue): 413 ng/g; AUC(0-t) ([2]; in vivo, mouse plasma): 794 ng·h/mL; Cmax ([2]; in vivo, mouse plasma): 72.8 ng/mL; bioavailability ([2]; in vivo): 77%; AUC(0-t) ([3]; in vivo): 5320 ng·h/mL; Cmax ([3]; in vivo): 815 ng/mL; bioavailability ([3]; in vivo): 100%
12 | [2H]C1([2H])C(=O)Nc2cc(CCN3CCN(c4cc(F)cc5occc45)CC3)ccc2C1([2H])[2H] [Example 43, 7-(2-(4-(6-fluorobenzofuran-4-yl)piperazin-1-yl)ethyl)-3,4-dihydroquinolin-2(1H)-one-3,3,4,4-d4] |  | 7.4 nM | 
13 | [2H]C1([2H])CC(=O)Nc2cc(CCN3CCN(c4cc(F)cc5occc45)CC3)ccc21 [Example 41, 7-(2-(4-(6-fluorobenzofuran-4-yl)piperazin-1-yl)ethyl)-3,4-dihydroquinolin-2(1H)-one-4,4-d2] | 0.7 nM |  | 
14 | O=C1CCc2ccc(CCN3CCN(c4cc(F)cc5ccoc45)CC3)cc2N1 [Example 6, 7-(2-(4-(5-fluorobenzofuran-7-yl)piperazin-1-yl)ethyl)-3,4-dihydroquinolin-2(1H)-one] |  | 12 nM | 
15 | O=c1ccc2ccc(CCN3CCN(c4cc(F)cc5ccsc45)CC3)cc2[nH]1 [Example 16, 7-(2-(4-(5-fluorobenzo[b]thiophene-7-yl)piperazin-1-yl)ethyl)quinolin-2(1H)-one] | 0.5 nM |  | 
